Here are results for 2 compounds from ChEMBL document CHEMBL5244248, “A novel long-acting oxyntomodulin analogue eliminates diabetes and obesity in mice” (Eur J Med Chem, 2020).

In experiment [1] the test system is INS1. The experiment in a line: Anti-apoptotic activity in rat INS1 cells assessed as reduction in cytokine-induced cell apoptosis at 100 nM treated for 1 hr prior to TNF-alpha and IL-1beta challenge. The class given is functional.
Experiment [2] has as its target T1, Glucagon-like peptide 1 receptor (Mus musculus, UniProt O35659).
T1 sequence (O35659 whole entry): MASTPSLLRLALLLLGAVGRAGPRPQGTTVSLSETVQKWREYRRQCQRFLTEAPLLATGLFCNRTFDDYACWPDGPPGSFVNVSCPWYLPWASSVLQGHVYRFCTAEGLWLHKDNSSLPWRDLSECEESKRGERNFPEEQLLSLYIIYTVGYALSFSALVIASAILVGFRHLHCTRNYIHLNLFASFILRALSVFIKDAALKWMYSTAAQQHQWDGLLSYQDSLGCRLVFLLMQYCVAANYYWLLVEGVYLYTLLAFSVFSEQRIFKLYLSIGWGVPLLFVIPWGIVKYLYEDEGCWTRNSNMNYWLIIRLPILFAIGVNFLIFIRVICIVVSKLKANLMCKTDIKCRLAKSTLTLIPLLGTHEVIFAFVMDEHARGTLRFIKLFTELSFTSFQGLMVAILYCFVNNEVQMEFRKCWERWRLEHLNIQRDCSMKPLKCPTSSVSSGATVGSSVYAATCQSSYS
The experiment in a line: Agonist activity at mouse GLP-1R expressed in CHO cells assessed as increase in cAMP accumulation. The class given is cell-based.

In experiment [3] the target is Glucagon receptor (Mus musculus, UniProt Q61606). The experiment in a line: Agonist activity at mouse GCGR expressed in CHO cells assessed as increase in cAMP accumulation. The class given is cell-based.
Sequence of Glucagon receptor (Q61606 whole entry): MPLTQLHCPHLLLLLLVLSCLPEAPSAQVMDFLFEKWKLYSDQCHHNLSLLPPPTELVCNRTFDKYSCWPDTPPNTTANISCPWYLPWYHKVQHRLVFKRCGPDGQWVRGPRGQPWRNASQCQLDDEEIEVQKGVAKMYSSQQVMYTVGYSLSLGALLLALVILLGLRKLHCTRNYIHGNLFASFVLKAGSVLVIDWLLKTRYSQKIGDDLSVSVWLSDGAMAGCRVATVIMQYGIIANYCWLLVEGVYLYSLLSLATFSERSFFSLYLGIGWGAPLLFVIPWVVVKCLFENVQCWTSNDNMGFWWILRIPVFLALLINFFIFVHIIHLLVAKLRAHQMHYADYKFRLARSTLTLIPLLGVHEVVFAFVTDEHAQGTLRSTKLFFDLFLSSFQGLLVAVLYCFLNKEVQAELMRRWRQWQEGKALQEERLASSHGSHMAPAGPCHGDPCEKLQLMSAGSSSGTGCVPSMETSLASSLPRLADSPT

As for `CC[C@H](C)[C@H](NC(=O)[C@H](Cc1ccccc1)NC(=O)[C@H](CCC(=O)O)NC(=O)[C@H](CCCCN)NC(=O)[C@H](C)NC(=O)[C@H](C)NC(=O)[C@H](CCC(N)=O)NC(=O)CNC(=O)[C@H](CCC(=O)O)NC(=O)[C@H](CC(C)C)NC(=O)[C@H](Cc1ccc(O)cc1)NC(=O)[C@H](CO)NC(=O)[C@H](CO)NC(=O)[C@@H](NC(=O)[C@H](CC(=O)O)NC(=O)[C@H](CO)NC(=O)[C@@H](NC(=O)[C@H](Cc1ccccc1)NC(=O)[C@@H](NC(=O)CNC(=O)[C@H](CCC(=O)O)NC(=O)[C@H](C)NC(=O)[C@@H](N)Cc1cnc[nH]1)[C@@H](C)O)[C@@H](C)O)C(C)C)C(=O)N[C@@H](C)C(=O)N[C@@H](Cc1c[nH]c2ccccc12)C(=O)N[C@@H](CC(C)C)C(=O)N[C@H](C(=O)N[C@@H](CCCCN)C(=O)NCC(=O)N[C@@H](CCCNC(=N)N)C(=O)O)C(C)C`, the inhibition at 0.1 µM in experiment [1] worked out at 40.4%.
On to `CC[C@H](C)[C@H](NC(=O)[C@H](CC(N)=O)NC(=O)[C@H](CC(N)=O)NC(=O)[C@H](CCCNC(=N)N)NC(=O)[C@H](CC(N)=O)NC(=O)[C@H](CCCNC(=N)N)NC(=O)[C@H](CCCCN)NC(=O)[C@@H](NC(=O)[C@H](CC(N)=O)NC(=O)[C@H](CCSC)NC(=O)[C@H](CC(C)C)NC(=O)[C@H](Cc1c[nH]c2ccccc12)NC(=O)[C@H](CCC(N)=O)NC(=O)[C@@H](NC(=O)[C@H](Cc1ccccc1)NC(=O)[C@H](CCC(=O)O)NC(=O)[C@H](CCCCN)NC(=O)[C@H](C)NC(=O)[C@H](CCCNC(=N)N)NC(=O)[C@H](CCCCN)NC(=O)[C@H](CCC(=O)O)NC(=O)[C@H](CC(=O)O)NC(=O)[C@H](CC(C)C)NC(=O)[C@H](Cc1ccc(O)cc1)NC(=O)[C@H](CCCCN)NC(=O)[C@H](CO)NC(=O)[C@H](Cc1ccc(O)cc1)NC(=O)[C@H](CC(=O)O)NC(=O)[C@H](CO)NC(=O)[C@@H](NC(=O)[C@H](Cc1ccccc1)NC(=O)[C@@H](NC(=O)CNC(=O)[C@H](CCC(N)=O)NC(=O)C(C)(C)NC(=O)[C@@H](N)Cc1c[nH]cn1)[C@@H](C)O)[C@@H](C)O)C(C)C)[C@@H](C)O)C(=O)N[C@@H](C)C(N)=O`, for which the concentration for a half-maximal effect (EC50) worked out at 0.61 nM in experiment [2] and 0.94 nM in experiment [3].
